Read-outs that look alike come from different tables or passages of the source.
Tests used:
[1] = cited from earlier work
[2] = Experimental: Human corneal-scleral rims, which were discarded following harvesting of the corneal button (Regional Cornea Bank, Bologna, Italy), were frozen in liquid nitrogen and used within 15 days of explantation.
(§1) Permeation experiments were performed in Franz-type diffusion cells with an area of 0.2 cm^2 for human sclera and 0.6 cm^2 for porcine sclera.
(§2) To reduce edge damage, a thin layer of silicone lubricant was applied to the glass surface, and the minimum force necessary to keep the cell sealed was applied.
(§3) The receptor compartment contained 4 ml of 25 mM HEPES buffer (pH 7.4) added with 0.9% NaCl, kept at 37 °C, and magnetically stirred. […] At predetermined time intervals, the receptor solution was sampled for the determination of drug permeated.
(§4) The transscleral flux, i.e., the amount of drug that crosses 1 cm^2 of sclera in 1 h (J, µg/cm^2h) was calculated as the slope of the regression line at the steady-state while the lag time was the intercept of the regression line on the x-axis. The permeability coefficient (P, cm/s) was calculated as J/Cv where Cv represents the concentration of the donor solution.
(§5) Experiments performed with human sclera were replicated three to four times while those performed on porcine sclera were replicated five to seven times. All the experiments were performed using previously frozen tissues, and acetaminophen permeability was tested also through fresh pig sclera.
(§6) Acetaminophen and insulin were analyzed by HPLC with a Perkin-Elmer instrument (Norwalk, CT), which is made of an isocratic pump LC250 an UV detector LC290, and the Perkin Elmer Turbochrom Workstation software.
(§7) Acetaminophen was analyzed using a C18 Novapak® column (150×3.9 mm; Waters, Milford, MA) and a mobile phase composed of 92% (v/v) 10 mM sodium acetate pH 4 and 8% (v/v) acetonitrile, which was pumped at 1 ml/min. The detector was set at 254 nm.
(§8) Insulin was analyzed using a C18 Symmetry300® column (250×4.6 mm; Waters) at 40 °C and a mobile phase composed of 73% (v/v) aqueous phase and 27% (v/v) acetonitrile, which was pumped at 1 ml/min. The aqueous phase contained anhydrous sodium sulfate 28.4 g/l and phosphoric acid 2.7 ml/l and was adjusted at pH 2.3 with ethanolamine. The detector was set at 214 nm.
(§9) The excitation and emission λ were 490 and 520 nm, respectively.

[3] = remark: listed apart in the source
Experimental: Porcine globes were obtained from pigs (Large White, Landrance, Duroc; 10–11 months) that ranged in weight 145–190 kg and came from a local slaughterhouse. Porcine eyes were either used within 24 h of explantation or frozen at −80 °C until use. After thawing, the adherent muscle tissue was removed from the eye bulb, and the anterior segment of the eye was circumferentially cut behind the limbus. The eye was then cut into two halves, the vitreous was removed, and the anterior sclera was used for permeation experiments after the removal of the underling tissues using a cotton swab. The frozen tissues were used within three months of explantation.
as §1, §2, §3, §4, §5, §6, §7, §8, §9

[4] = cited from earlier work; remark: listed apart in the source
Source text: Regardless of the nature of this interaction, we have estimated that the affinity of insulin for the sclera was the same for porcine and human tissues. […] These values (not statistically different between them, p=0.176) indicate a similar behavior of the two tissues toward insulin and also confirm that insulin has an effective affinity for the sclera. In fact, even if the absolute value of the par ...

[5] = Affinity of insulin for scleral tissue: partition coefficient, human sclera / aqueous solution; type: in vitro ADME; conditions: insulin about 100 µg/ml in HEPES pH 7.4 with EDTA and lysine, 0.4 ml on 50-100 mg tissue, 3 h, room temperature, HPLC, mean±SEM, n at least 6
Experimental: (§10) Affinity of insulin for scleral tissue was estimated by measuring its partition coefficient between human or porcine sclera and an aqueous solution at pH 7.4. Insulin was dissolved in the aqueous vehicle that was used as donor for the permeation experiments at a concentration of about 100 µg/ml. This solution (0.4 ml) was added to a previously weighed amount of human or porcine sclera (50–100 mg) in a 2.0 ml vial. The insulin solution and the scleral tissues were incubated at room temperature for 3 h. The solution was then filtered (regenerated cellulose, 0.45 µm pore size) and analyzed by HPLC for the determination of the final insulin concentration in the water phase [Wf]. The insulin concentration [S] in the sclera after the incubation period was calculated as:
(§11) [S]=[Wi] x VW - [Wf] x VW/VS
(§12) where [Wi] is the initial concentration of insulin in the aqueous phase, [Wf] is the concentration of insulin in the aqueous phase after the incubation period, VW is the volume of the aqueous phase (0.4 ml), and VS is the volume of the sclera, which was estimated by its weight and by considering the scleral density to be equal to 1 g/ml.
(§13) The partition coefficient (Ks/w) was then calculated as: […]
(§14) Each experiment was replicated at least six times.

[6] = Affinity of insulin for scleral tissue: partition coefficient, porcine sclera / aqueous solution; type: in vitro ADME, pig; conditions: insulin about 100 µg/ml in HEPES pH 7.4 with EDTA and lysine, 0.4 ml on 50-100 mg tissue, 3 h, room temperature, HPLC, mean±SEM, n at least 6
Experimental: as §10, §11, §12, §13, §14

[7] = no reference given; cited from earlier work
Experimental: The permeability was evaluated using three model compounds. […] Insulin has been chosen as a model protein. It has a molecular weight of 5,734 Da, a molecular radius of the monomeric form of 1.13 nm or 2.0 nm, and an isoelectric point of about 5.4. […] Permeation experiment ...

[8] = cited from earlier work; remark: listed apart in the source
[9] = cited from earlier work; remark: listed apart in the source
[10] = neutral molecules of different lipophilicity, rhodamine 6G electrically charged at the pH of the experiment

## CC(=O)Nc1ccc(O)cc1 [Acetaminophen, acetaminophen]
[1]
  Molecular radius: 0.36 nm
[2]
  Flux through human sclera relative to pig sclera: 2 times
[2]; SEM
  DK (diffusion coefficient x partition coefficient): 2.05±0.18 cm^2/s x10^−6
[2]; pH 7.4
  Lag-time: no lag time was detectable
  P (permeability coefficient): 34.9±3.0 cm/s x10^−6
  Permeability coefficient across human sclera: 3.49 [±0.3] x10^-5 cm/s
[3]; SEM
  DK (diffusion coefficient x partition coefficient): 1.95±0.26 cm^2/s x10^−6
[3]; pH 7.4
  Effect of freezing on tissue permeability (fresh vs previously frozen porcine sclera): did not have any effect on tissue permeability
  P (permeability coefficient): 15.6±2.1 cm/s x10^−6
[3]; pH 7.4, SEM
  Lag-time: 35 ± 2 min

## CCCC1O[C@@H]2C[C@H]3[C@@H]4CCC5=CC(=O)C=C[C@]5(C)[C@H]4[C@@H](O)C[C@]3(C)[C@]2(C(=O)CO)O1 (stereo partly shown) [budesonide]
[4]; [10]
  Partition coefficient sclera (literature): 1.2

## Cc1ccc(-c2cc(C(F)(F)F)nn2-c2ccc(S(N)(=O)=O)cc2)cc1 [celecoxib]
[4]; [10]
  Partition coefficient sclera (literature): 1.4

## OC[C@@H](O)[C@@H](O)[C@H](O)[C@H](O)CO [mannitol]
[4]; [10]
  Partition coefficient sclera (literature): 0.005

## CC/N=c1\cc2oc3cc(NCC)c(C)cc3c(-c3ccccc3C(=O)OCC)c-2cc1C [rhodamine 6G]
[4]; [10]
  Partition coefficient sclera (literature): high affinity

## OC[C@H]1O[C@@](CO)(O[C@H]2O[C@H](CO)[C@@H](O)[C@H](O)[C@H]2O)[C@@H](O)[C@@H]1O [sucrose]
[4]
  Partition coefficient sclera (literature): 0.6

## Insulin from bovine pancreas [listing 1 of 2 here]
[2]; human sclera, previously frozen, Franz-type cell 0.2 cm^2, donor 4.9 mg/ml acetaminophen, 1 mg/ml FD-150 or 1 mg/ml insulin in 25 mM HEPES pH 7.4, receptor HEPES pH 7.4 + 0.9% NaCl (0.3% BSA for insulin), 37 °C, slope at steady state, HPLC-UV (FD-150 fluorescence), mean±SEM, n = 3-4, SEM
  Flux: 6.93±1.14 µg/cm^2h
[2]; human sclera, previously frozen, Franz-type cell 0.2 cm^2, donor pH 7.4 HEPES, 37 °C, P = J/Cv, mean±SEM, n = 3-4
  P (permeability coefficient): 1.93±0.32 cm/s x10^−6
[2]; human sclera, previously frozen, intercept of the regression line on the x-axis, donor pH 7.4, 37 °C, mean±SEM, n = 3-4, SEM
  Lag-time: 71 ± 6 min
[2]; human sclera, from P = DK/H with H = tissue thickness (0.59 mm), mean±SEM, SEM
  DK (diffusion coefficient x partition coefficient): 0.11±0.02 cm^2/s x10^−6
[2]; ratio human / pig sclera flux
  Flux through human sclera relative to pig sclera: 2 times
[3]; porcine sclera, previously frozen, Franz-type cell 0.6 cm^2, donor 4.9 mg/ml acetaminophen, 1 mg/ml FD-150 or 1 mg/ml insulin in 25 mM HEPES pH 7.4, receptor HEPES pH 7.4 + 0.9% NaCl (0.3% BSA for insulin), 37 °C, slope at steady state, HPLC-UV (FD-150 fluorescence), mean±SEM, n = 5-7, SEM
  Flux: 3.74±2.10 µg/cm^2h
[3]; porcine sclera, previously frozen, intercept of the regression line on the x-axis, donor pH 7.4, 37 °C, mean±SEM, n = 5-7, SEM
  Lag-time: 198 ± 23 min
[3]; porcine sclera, from P = DK/H with H = tissue thickness (1.25 mm), mean±SEM, SEM
  DK (diffusion coefficient x partition coefficient): 0.11±0.05 cm^2/s x10^−6
[5]
  Partition coefficient (Ks/w) between sclera and donor solution: 10.3±1.2
[6]
  Partition coefficient (Ks/w) between sclera and donor solution: 7.0±1.1
[7]
  isoelectric point: about 5.4

## Insulin from bovine pancreas [listing 2 of 2 here]
[8]
  Molecular radius of the monomeric form: 1.13 nm
[9]
  Molecular radius (dimers/hexamers in solution): 2.5 nm
